Experimental findings from PMC6063448, “Antimicrobial activity of linear lipopeptides derived from BP100 towards plant pathogens” (PLoS ONE, 2018) are described below.

Common to all, as to format: cell-based
For assay [1], the system named is Xanthomonas fragariae Xf349-9A. In words: MIC, growth inhibition in microtiter plates (TSB). Particulars: Xf, 25°C, 48 h, OD 600 nm, lowest concentration with no growth, given as interval of tested concentrations, three replicates, experiment repeated twice. An excerpt: (§1) The following plant pathogenic bacterial strains were used: Erwinia amylovora PMV6076 (Institut National de la Recherche Agronomique, Angers, France), Pseudomonas syringae pv. syringae EPS94 (Institut de Tecnologia Agroalimentària, Universitat de Girona, Spain), Xanthomonas axonopodis pv. vesicatoria 2133–2, Pseudomonas syringae pv. actinidiae Psa3700.1.1, Xanthomonas fragariae Xf349-9A (Instituto Valenciano de Investigaciones Agrarias, Valencia, Spain), and Xanthomonas arboricola pv. pruni CFBP5563 (Collection Française de Bactéries associées aux Plantes, Angers, France). All bacteria except for X. fragariae were stored in Luria Bertani (LB) broth supplemented with glycerol (20%) and maintained at -80°C. For X. fragariae, Medium B [46] was used instead of LB. E. amylovora, X. arboricola pv. pruni, P. syringae pv. syringae and P. syringae pv. actinidiae were scrapped from the agar media after growing for 24 h at 25°C, and X. axonopodis pv. vesicatoria and X. fragariae after growing for 48 h at 25°C. The cell material was suspended in sterile water to obtain a suspension of 10^8 CFU mL^-1.
(§2) Lyophilized peptides were solubilized in sterile Milli-Q water to a final concentration of 1 mM and filter sterilized through a 0.22-μm pore filter. […] For antibacterial activity 20 μL of each dilution were mixed in a microtiter plate well with 20 μL of the corresponding suspension of the bacterial indicator, 160 μL of Trypticase Soy Broth (TSB) (BioMèrieux, France) to a total volume of 200 μL. For antifungal activity 20 μL of each stock solution were mixed in a microtiter plate well with 80 μL of the corresponding suspension of the fungal pathogen and 100 μL of double concentrated Potato Dextrose Broth (PDB) to a total volume of 200 μL containing 0.003% w/v of chloramphenicol to prevent bacterial contamination.
(§3) Three replicates for each combination of strain, compound and concentration were used. Microbial growth was determined by optical density measurement at 600 nm (Bioscreen C, Labsystem, Helsinki, Finland). For antibacterial activity microplates were incubated at 25°C with 20 s shaking before hourly absorbance measurement for 48 h. For antifungal activity microplates were incubated at 22°C with 1 min shaking before absorbance measurement that were done every two hours during seven days. The experiment was repeated twice. The MIC was taken as the lowest compound concentration with no growth at the end of the experiment.

For assay [2], the system named is Pseudomonas syringae pv. syringae EPS94. In words: MIC, growth inhibition in microtiter plates (TSB). Particulars: Pss, 25°C, 48 h, OD 600 nm, lowest concentration with no growth, given as interval of tested concentrations, three replicates, experiment repeated twice.
Description: as §1, §2, §3

Assay [3] relates to Erwinia amylovora PMV6076. In words: MIC, growth inhibition in microtiter plates (TSB). Particulars: Ea, 25°C, 48 h, OD 600 nm, lowest concentration with no growth, given as interval of tested concentrations, three replicates, experiment repeated twice.
Description: as §1, §2, §3

Assay [4] concerns Pseudomonas syringae pv. actinidiae Psa3700.1.1. In words: MIC, growth inhibition in microtiter plates (TSB). Particulars: Psa, 25°C, 48 h, OD 600 nm, lowest concentration with no growth, given as interval of tested concentrations, three replicates, experiment repeated twice.
Description: as §1, §2, §3

Assay [5] has as its system Xanthomonas axonopodis pv. vesicatoria 2133–2. In words: MIC, growth inhibition in microtiter plates (TSB). Particulars: Xav, 25°C, 48 h, OD 600 nm, lowest concentration with no growth, given as interval of tested concentrations, three replicates, experiment repeated twice.
Description: as §1, §2, §3

Assay [6] concerns Xanthomonas arboricola pv. pruni CFBP5563. In words: MIC, growth inhibition in microtiter plates (TSB). Particulars: Xap, 25°C, 48 h, OD 600 nm, lowest concentration with no growth, given as interval of tested concentrations, three replicates, experiment repeated twice.
Description: as §1, §2, §3

For assay [7], the system named is Fusarium oxysporum f. sp. lycopersici FOL 3 race 2. In words: MIC, antifungal growth inhibition in microtiter plates (PDB). Particulars: Fo, 22°C, seven days, OD 600 nm, lowest concentration with no growth, given as interval of tested concentrations, three replicates, experiment repeated twice. Here is the method: (§4) The following plant pathogenic fungal strains were used: Penicillium expansum EPS26 (Institut de Tecnologia Agroalimentària, Universitat de Girona, Spain) and Fusarium oxysporum f. sp. lycopersici FOL 3 race 2 (ATCC 201829, American Type Culture Collection,Virginia, EEUU). Strains were cultured on potato dextrose agar (PDA) plates (Difco). Conidia from P. expansum and microconidia from F. oxysporum were obtained from 5–7 day-old agar Potato Dextrose (PDA) cultures after growth at 25°C. Inoculum was prepared by scraping spore material from culture surfaces with a cotton swab and resuspending it in distilled water containing 0.5‰ of tween 80. The suspensions were filtered through Miracloth (Merk, Millipore) and the concentration of conidia was determined using a hemacytometer and adjusted to 10^4 conidia mL^-1 for F. oxysporum and to 10^3 conidia mL^-1 for P. expansum.
as §2, §3

In assay [8] the test system is Penicillium expansum EPS26. The assay is described as above. Particulars: Pe, 22°C, seven days, OD 600 nm, lowest concentration with no growth, given as interval of tested concentrations, three replicates, experiment repeated twice. How it is done: as §4, §2, §3

With `CCCC(=O)NCCCC[C@H](NC(=O)[C@H](CCCCN)NC(=O)[C@H](CCCCN)NC(C)=O)C(=O)N[C@@H](Cc1ccccc1)C(=O)N[C@@H](CCCCN)C(=O)N[C@@H](CCCCN)C(=O)N[C@H](C(=O)N[C@@H](CC(C)C)C(=O)N[C@@H](CCCCN)C(=O)N[C@@H](Cc1ccc(O)cc1)C(=O)N[C@@H](CC(C)C)C(N)=O)[C@@H](C)CC` [BP382, Ac-KKK(COC3H7)FKKILKYL-NH2], the MIC in assay [1] is 1.6 to 3.1 µM; in assay [2], 6.2 to 12.5 µM; in assay [3], 6.2 to 12.5 µM; in assay [4], 6.2 to 12.5 µM; in assay [5], 6.2 to 12.5 µM; in assay [6], 6.2 to 12.5 µM. Besides, the MIC in assay [7] lay within 0.8 to 1.6 µM; in assay [8], 3.1 to 6.2 µM.
As for `CCCCCC(=O)NCCCC[C@H](NC(=O)[C@H](CCCCN)NC(=O)[C@H](CC(C)C)NC(=O)[C@@H](NC(=O)[C@H](CCCCN)NC(=O)[C@H](CCCCN)NC(=O)[C@H](Cc1ccccc1)NC(=O)[C@H](CC(C)C)NC(=O)[C@H](CCCCN)NC(=O)[C@H](CCCCN)NC(C)=O)[C@@H](C)CC)C(=O)N[C@@H](CC(C)C)C(N)=O` [BP377, Ac-KKLFKKILKK(COC5H11)L-NH2], the MIC in assay [1] lay within 3.1 to 6.2 µM; in assay [2], 3.1 to 6.2 µM; in assay [3], 3.1 to 6.2 µM; in assay [4] it was 3.1 to 6.2 µM; in assay [5], 6.2 to 12.5 µM; in assay [6], 3.1 to 6.2 µM. Moreover, the results for the MIC in assay [7] and in assay [8] were 0.8 to 1.6 µM and 3.1 to 6.2 µM, respectively.
On to `CCCCCC(=O)NCCCC[C@H](NC(=O)[C@H](CCCCN)NC(=O)[C@H](Cc1ccccc1)NC(=O)[C@H](CC(C)C)NC(=O)[C@H](CCCCN)NC(=O)[C@H](CCCCN)NC(C)=O)C(=O)N[C@H](C(=O)N[C@@H](CC(C)C)C(=O)N[C@@H](CCCCN)C(=O)N[C@@H](Cc1ccc(O)cc1)C(=O)N[C@@H](CC(C)C)C(N)=O)[C@@H](C)CC` [BP373, Ac-KKLFKK(COC5H11)ILKYL-NH2], for which the minimum inhibitory concentration (MIC) in assay [1] lay within 3.1 to 6.2 µM; in assay [2], 6.2 to 12.5 µM; in assay [3], 3.1 to 6.2 µM; in assay [4], 3.1 to 6.2 µM; in assay [5], 6.2 to 12.5 µM; in assay [6], 3.1 to 6.2 µM. The MIC in assay [7] lay in the range of 0.4 to 0.8 µM; in assay [8] it was 3.1 to 6.2 µM.
Consider `CCCCCCCCCCCC(=O)NCCCC[C@H](NC(=O)[C@@H](NC(=O)[C@H](CCCCN)NC(=O)[C@H](CCCCN)NC(=O)[C@H](Cc1ccccc1)NC(=O)[C@H](CC(C)C)NC(=O)[C@H](CCCCN)NC(=O)[C@H](CCCCN)NC(C)=O)[C@@H](C)CC)C(=O)N[C@@H](CCCCN)C(=O)N[C@@H](Cc1ccc(O)cc1)C(=O)N[C@@H](CC(C)C)C(N)=O` [BP399, Ac-KKLFKKIK(COC11H23)KYL-NH2], for which the MIC is 3.1 to 6.2 µM in assay [1]; 3.1 to 6.2 µM in assay [2]; above 25 µM in assay [3]; 3.1 to 6.2 µM in assay [4]; 0.8 to 1.6 µM in assay [5]; 1.6 to 3.1 µM in assay [6]. Also, the MIC in assay [7] was in the range of 6.2 to 12.5 µM; in assay [8], 12.5 to 25 µM.
Take `CCCCCCCCCCCC(=O)NCCCC[C@H](NC(=O)[C@H](Cc1ccc(O)cc1)NC(=O)[C@H](CCCCN)NC(=O)[C@H](CC(C)C)NC(=O)[C@@H](NC(=O)[C@H](CCCCN)NC(=O)[C@H](CCCCN)NC(=O)[C@H](Cc1ccccc1)NC(=O)[C@H](CC(C)C)NC(=O)[C@H](CCCCN)NC(=O)[C@H](CCCCN)NC(C)=O)[C@@H](C)CC)C(N)=O` [BP402, Ac-KKLFKKILKYK(COC11H23)-NH2]: the MIC in assay [1] was in the range of 3.1 to 6.2 µM; in assay [2], 3.1 to 6.2 µM; in assay [3] it was 3.1 to 6.2 µM; in assay [4], 3.1 to 6.2 µM; in assay [5], 1.6 to 3.1 µM; in assay [6], 1.6 to 3.1 µM. For the same compound, the MIC in assay [7] fell in the range of 6.2 to 12.5 µM; in assay [8], 12.5 to 25 µM.
Turning to `CCCCCC(=O)NCCCC[C@H](NC(C)=O)C(=O)N[C@@H](CCCCN)C(=O)N[C@@H](CC(C)C)C(=O)N[C@@H](Cc1ccccc1)C(=O)N[C@@H](CCCCN)C(=O)N[C@@H](CCCCN)C(=O)N[C@H](C(=O)N[C@@H](CC(C)C)C(=O)N[C@@H](CCCCN)C(=O)N[C@@H](Cc1ccc(O)cc1)C(=O)N[C@@H](CC(C)C)C(N)=O)[C@@H](C)CC` [BP368, Ac-K(COC5H11)KLFKKILKYL-NH2], the MIC in assay [1] was 6.2 to 12.5 µM; in assay [2] it was 6.2 to 12.5 µM; in assay [3] it was 6.2 to 12.5 µM; in assay [4] it was 6.2 to 12.5 µM; in assay [5], 3.1 to 6.2 µM; in assay [6], 3.1 to 6.2 µM. In addition, the MIC in assay [7] was in the range of 0.8 to 1.6 µM; in assay [8], 1.6 to 3.1 µM.
As for `CCCCCC(=O)NCCCC[C@H](NC(=O)[C@@H](NC(=O)[C@H](CCCCN)NC(=O)[C@H](CCCCN)NC(=O)[C@H](Cc1ccccc1)NC(=O)[C@H](CC(C)C)NC(=O)[C@H](CCCCN)NC(=O)[C@H](CCCCN)NC(C)=O)[C@@H](C)CC)C(=O)N[C@@H](CCCCN)C(=O)N[C@@H](Cc1ccc(O)cc1)C(=O)N[C@@H](CC(C)C)C(N)=O` [BP375, Ac-KKLFKKIK(COC5H11)KYL-NH2], the MIC lay within 3.1 to 6.2 µM in assay [1]; 3.1 to 6.2 µM in assay [2]; 3.1 to 6.2 µM in assay [3]; 3.1 to 6.2 µM in assay [4]; 6.2 to 12.5 µM in assay [5]; 3.1 to 6.2 µM in assay [6]. In addition, the values for the MIC in assay [7] and in assay [8] were 0.4 to 0.8 µM and 3.1 to 6.2 µM, respectively.
As for `CCCCCCCCCCCC(=O)NCCCC[C@H](NC(=O)[C@H](CCCCN)NC(=O)[C@H](CCCCN)NC(=O)[C@H](Cc1ccccc1)NC(=O)[C@H](CC(C)C)NC(=O)[C@H](CCCCN)NC(=O)[C@H](CCCCN)NC(C)=O)C(=O)N[C@@H](CC(C)C)C(=O)N[C@@H](CCCCN)C(=O)N[C@@H](Cc1ccc(O)cc1)C(=O)N[C@@H](CC(C)C)C(N)=O` [BP398, Ac-KKLFKKK(COC11H23)LKYL-NH2], the MIC was 3.1 to 6.2 µM in assay [1]; 3.1 to 6.2 µM in assay [2]; above 25 µM in assay [3]; 3.1 to 6.2 µM in assay [4]; 0.8 to 1.6 µM in assay [5]; 1.6 to 3.1 µM in assay [6]. Further, the MIC in assay [7] was 6.2 to 12.5 µM; in assay [8], above 25 µM.

As a reminder, the MIC is the smallest concentration in the dilution series that meets the test's criterion for growth inhibition.
